# Biological target: T1, ApL (A. pediades laccase) (Agrocybe pediades, UniProt A0A8H4QKE8, V194E/N433D)
# T1 construct: gene D9613_012768
# Details: read-out: IC50 (mM or v/v % ^a); DM variant; ABTS about 3 mM, citrate-phosphate pH 3; fluoride, TNC site
compound,measurement,value
F [NaF],IC50,0.051 ± 0.002 mM
